In the assay the test system is X4-tropic HIV-1 NL4-3. Particulars: for IC50: read-out: IC50 NL4-3, P4-CCR5 cells, HIV-1 NL4-3, peptide 2 h before infection, readout three days after infection. From the text: These cells contain the β-galactosidase reporter gene under the control of the HIV-1 promoter. Thus, activation of the β-galactosidase reporter gene allows to measure the efficiency of HIV-1 infection and thus to quantitate the potency of HIV-1 inhibitors (Detheux M. et al., 2000; Journal of Experimental Medicine 192, 1501-1508; Münch et al., 2002; Antimicrobial Agents and Chemotherapy 46, 982-990).
To perform a typical infection assay, P4-CCR5 cells (Charneau et al., 1994; Journal of Molecular Biology 241, 651-662; Charneau et al., Virology. 1994 205, 247-53) were kept in RPMI 1640 medium supplemented with 10 volume % FCS. This cell line coexpresses CD4 and both HIV-1 coreceptors CCR5 and CXCR4 and contains the β-galactosidase gene under the control of the HIV-1 promoter. Virus stocks were generated by the calcium coprecipitation method as described (Detheux et al., J Exp Med. 192:1501-8; 2000), and the p24 antigen levels were quantitated with an HIV p24 ELISA kit obtained through the NIH AIDS Reagent Program. Cells were seeded in flat-bottomed 96-well dishes, cultured overnight, and incubated with the different doses of peptide for 2 h before infection with virus containing 1 ng of p24 antigen in a total volume of […] of medium. After overnight incubation, cells were washed twice and cultivated in fresh culture medium without inhibitory peptide. Three days after infection the cells were lysed, and infectivity was quantitated using the Galacto-Light Plus™ chemiluminescence reporter assay kit (Tropix, Bedford, Mass.) as recommended by the manufacturer. All infections were performed in quintuplicate.

The term IC50 denotes the midpoint of a concentration-inhibition curve.

Positions of bridges follow the written chain, without caps; N, C: chain ends. Non-standard residues stand in square brackets, D forms with d. Residues, ends and D or L forms follow the SMILES beside them.

For the compound `CC[C@H](C)[C@H](NC(=O)[C@H](C)NC(=O)[C@H](CCC(=O)O)NC(=O)[C@@H](N)CC(C)C)C(=O)N1CCC[C@H]1C(=O)N[C@H]1CSSC[C@@H](C(=O)N[C@@H](Cc2ccccc2)C(=O)N[C@@H](CC(C)C)C(=O)N[C@@H](Cc2ccccc2)C(=O)NCC(=O)N[C@@H](CCCCN)C(=O)N2CCC[C@H]2C(=O)N[C@@H](Cc2ccccc2)C(=O)N[C@H](C(=O)N[C@@H](Cc2ccccc2)C(=O)O)C(C)C)NC(=O)[C@@H]2CCCN2C(=O)[C@@H]2CCCN2C(=O)[C@H]([C@@H](C)CC)NC(=O)[C@H](CO)NC1=O` [VIR-280] (H-LEAIPCSIPPCFLFGKPFVF-OH; disulfide 6-11), under “from IC50 against two HIV-1 strains (NL4-3, DTV)”, the “increase in anti-HIV activity in comparison to VIRIP” value is 161 fold. Turning to `CC[C@H](C)[C@H](NC(=O)[C@@H]1CCCN1C(=O)[C@@H](NC(=O)[C@H](C)NC(=O)[C@H](CCC(=O)O)NC(=O)[C@@H](N)CC(C)C)[C@@H](C)CC)C(=O)N[C@@H](CO)C(=O)N[C@H](C(=O)N1CCC[C@H]1C(=O)N1CCC[C@@H]1C(=O)N[C@@H](CCC(=O)O)C(=O)N[C@H](C(=O)N[C@@H](Cc1ccccc1)C(=O)N[C@@H](Cc1ccccc1)C(=O)NCC(=O)N[C@@H](CCCCN)C(=O)N1CCC[C@H]1C(=O)N[C@@H](Cc1ccccc1)C(=O)N[C@H](C(=O)N[C@@H](Cc1ccccc1)C(=O)O)C(C)C)C(C)C)[C@@H](C)CC` [VIR-290, LEAIPISIPpEVFFGKPFVF] (H-LEAIPISIP[dP]EVFFGKPFVF-OH), the 50% inhibitory concentration (IC50) came to 562 nM.

As for `CC[C@H](C)[C@H](NC(=O)[C@@H]1CCCN1C(=O)[C@@H](NC(=O)[C@H](C)NC(=O)[C@H](CCC(=O)O)NC(=O)[C@@H](N)CC(C)C)[C@@H](C)CC)C(=O)N[C@@H](CO)C(=O)N[C@H](C(=O)N1CCC[C@H]1C(=O)N1CCC[C@@H]1C(=O)N[C@@H](CCC(=O)O)C(=O)N[C@H](C(=O)N[C@@H](Cc1c[nH]c2ccccc12)C(=O)N[C@@H](Cc1ccccc1)C(=O)N[C@@H](CC(N)=O)C(=O)N[C@@H](CCCCN)C(=O)N1CCC[C@H]1C(=O)N[C@@H](Cc1ccccc1)C(=O)N[C@H](C(=O)N[C@@H](Cc1ccccc1)C(=O)O)C(C)C)C(C)C)[C@@H](C)CC` [VIR-298, LEAIPISIPpEVWFNKPFVF] (H-LEAIPISIP[dP]EVWFNKPFVF-OH), the half-maximal inhibitory concentration (IC50) is 969 nM. For `CC[C@H](C)[C@H](NC(=O)[C@H](C)NC(=O)[C@H](CCC(=O)O)NC(=O)[C@@H](N)CC(C)C)C(=O)N1CCC[C@H]1C(=O)N[C@@H](CCSC)C(=O)NCC(=O)N[C@H](C(=O)N1CCC[C@H]1C(=O)N1CCC[C@@H]1C(=O)N[C@@H](CCC(=O)O)C(=O)N[C@H](C(=O)N[C@@H](Cc1ccccc1)C(=O)N[C@@H](Cc1ccccc1)C(=O)NCC(=O)N[C@@H](CCCCN)C(=O)N1CCC[C@H]1C(=O)N[C@@H](Cc1ccccc1)C(=O)N[C@H](C(=O)N[C@@H](Cc1ccccc1)C(=O)O)C(C)C)C(C)C)[C@@H](C)CC` [VIR-320, LEAIPMGIPpEVFFGKPFVF] (H-LEAIPMGIP[dP]EVFFGKPFVF-OH), the 50% inhibitory concentration (IC50) was found to be 277 nM.

Regarding `CC[C@H](C)[C@H](NC(=O)[C@H](C)NC(=O)[C@H](CCC(=O)O)NC(=O)[C@@H](N)CC(C)C)C(=O)N1CCC[C@H]1C(=O)N[C@@H](CCSC)C(=O)NCC(=O)N[C@H](C(=O)N1CCC[C@H]1C(=O)N1CCC[C@@H]1C(=O)N[C@@H](CCC(=O)O)C(=O)N[C@H](C(=O)N[C@@H](Cc1ccccc1)C(=O)N[C@@H](Cc1ccccc1)C(=O)N[C@@H](CC(N)=O)C(=O)N[C@@H](CCCCN)C(=O)N1CCC[C@H]1C(=O)N[C@@H](Cc1ccccc1)C(=O)N[C@H](C(=O)N[C@@H](Cc1ccccc1)C(=O)O)C(C)C)C(C)C)[C@@H](C)CC` [VIR-322, LEAIPMGIPpEVFFNKPFVF] (H-LEAIPMGIP[dP]EVFFNKPFVF-OH), the IC50 came to 836 nM. On to `CC[C@H](C)[C@H](NC(=O)[C@H](C)NC(=O)[C@H](CCC(=O)O)NC(=O)[C@@H](N)CC(C)C)C(=O)N1CCC[C@H]1C(=O)N[C@@H](CCSC)C(=O)NCC(=O)N[C@H](C(=O)N1CCC[C@H]1C(=O)N1CCC[C@@H]1C(=O)N[C@@H](CCC(=O)O)C(=O)N[C@@H](Cc1ccccc1)C(=O)N[C@@H](CC(C)C)C(=O)N[C@@H](Cc1ccccc1)C(=O)N[C@@H](CC(N)=O)C(=O)N[C@@H](CCCCN)C(=O)N1CCC[C@H]1C(=O)N[C@@H](Cc1ccccc1)C(=O)N[C@H](C(=O)N[C@@H](Cc1ccccc1)C(=O)O)C(C)C)[C@@H](C)CC` [VIR-323, LEAIPMGIPpEFLFNKPFVF] (H-LEAIPMGIP[dP]EFLFNKPFVF-OH), for which the concentration for half-maximal inhibition (IC50) is 924 nM. As to `CC[C@H](C)[C@H](NC(=O)[C@H](CC(=O)O)NC(=O)[C@H](CCC(=O)O)NC(=O)[C@@H](N)CC(C)C)C(=O)N1CCC[C@H]1C(=O)N[C@@H](CCSC)C(=O)NCC(=O)N[C@H](C(=O)N1CCC[C@H]1C(=O)N1CCC[C@@H]1C(=O)N[C@@H](CCC(=O)O)C(=O)N[C@H](C(=O)N[C@@H](C)C(=O)N[C@@H](Cc1ccccc1)C(=O)N[C@@H](CC(N)=O)C(=O)N[C@@H](CCCCN)C(=O)N1CCC[C@H]1C(=O)N[C@@H](Cc1ccccc1)C(=O)N[C@H](C(=O)N[C@@H](Cc1ccccc1)C(=O)O)C(C)C)C(C)C)[C@@H](C)CC` [VIR-326, LEDIPMGIPpEVAFNKPFVF] (H-LEDIPMGIP[dP]EVAFNKPFVF-OH), the 50% inhibitory concentration (IC50) came out at 963 nM. `CC[C@H](C)[C@H](NC(=O)[C@H](C)NC(=O)[C@H](CCC(=O)O)NC(=O)[C@@H](N)CC(C)C)C(=O)N1CCC[C@H]1C(=O)N[C@@H](CCSC)C(=O)NCC(=O)N[C@H](C(=O)N1CCC[C@H]1C(=O)N1CCC[C@@H]1C(=O)N[C@@H](CCC(=O)O)C(=O)N[C@H](C(=O)N[C@@H](Cc1c[nH]c2ccccc12)C(=O)N[C@@H](Cc1ccccc1)C(=O)N[C@@H](CC(N)=O)C(=O)N[C@@H](CCCCN)C(=O)N1CCC[C@H]1C(=O)N[C@@H](Cc1ccccc1)C(=O)N[C@H](C(=O)N[C@@H](Cc1ccccc1)C(=O)O)C(C)C)C(C)C)[C@@H](C)CC` [VIR-328, LEAIPMGIPpEVWFNKPFVF] (H-LEAIPMGIP[dP]EVWFNKPFVF-OH): the IC50 came out at 685 nM. Regarding `CC[C@H](C)[C@H](NC(=O)[C@H](C)NC(=O)[C@H](CCC(=O)O)NC(=O)[C@@H](N)CC(C)C)C(=O)N1CCC[C@H]1C(=O)N[C@H]1CSSC[C@@H](C(=O)N[C@@H](CC(C)C)C(=O)N[C@@H](C)C(=O)N[C@@H](Cc2ccccc2)C(=O)N[C@@H](C)C(=O)N[C@@H](CCCCN)C(=O)N2CCC[C@H]2C(=O)N[C@@H](Cc2ccccc2)C(=O)N[C@H](C(=O)N[C@@H](Cc2ccccc2)C(=O)O)C(C)C)NC(=O)[C@@H]2CCCN2C(=O)[C@@H]2CCCN2C(=O)[C@H]([C@@H](C)CC)NC(=O)[C@H](CO)NC1=O` [VIR-346] (H-LEAIPCSIPPCLAFAKPFVF-OH; disulfide 6-11), the half-inhibitory concentration (IC50) turned out to be 541 nM. Still for that read-out and setting: as for `CC[C@H](C)[C@H](NC(=O)[C@H](C)NC(=O)[C@H](CCC(=O)O)NC(=O)[C@@H](N)CC(C)C)C(=O)N1CCC[C@H]1C(=O)N[C@@H](CS)C(=O)N[C@@H](CO)C(=O)N[C@H](C(=O)N1CCC[C@H]1C(=O)N1CCC[C@@H]1C(=O)N[C@@H](CS)C(=O)N[C@H](C(=O)N[C@@H](Cc1ccccc1)C(=O)N[C@@H](Cc1ccccc1)C(=O)NCC(=O)N[C@@H](CCCCN)C(=O)N1CCC[C@H]1C(=O)N[C@@H](Cc1ccccc1)C(=O)N[C@H](C(=O)N[C@@H](Cc1ccccc1)C(=O)O)C(C)C)C(C)C)[C@@H](C)CC` [VIR-350, LEAIPCSIPpCVFFGKPFVF] (H-LEAIPCSIP[dP]CVFFGKPFVF-OH), the figure is 198 nM; as for `CC[C@H](C)[C@H](NC(=O)[C@H](C)NC(=O)[C@H](CCC(=O)O)NC(=O)[C@@H](N)CC(C)C)C(=O)N1CCC[C@H]1C(=O)N[C@H]1CSSC[C@@H](C(=O)N[C@H](C(=O)N[C@@H](C)C(=O)N[C@@H](Cc2ccccc2)C(=O)N[C@@H](CC(N)=O)C(=O)N[C@@H](CCCCN)C(=O)N2CCC[C@H]2C(=O)N[C@@H](Cc2ccccc2)C(=O)N[C@H](C(=O)N[C@@H](Cc2ccccc2)C(=O)O)C(C)C)C(C)C)NC(=O)[C@H]2CCCN2C(=O)[C@@H]2CCCN2C(=O)[C@H]([C@@H](C)CC)NC(=O)CNC1=O` [VIR-355, LEAIPCGIPpCVAFNKPFVF] (H-LEAIPCGIP[dP]CVAFNKPFVF-OH; disulfide 6-11), 582 nM. In the case of `CC[C@H](C)[C@H](NC(=O)[C@H](C)NC(=O)[C@H](CCC(=O)O)NC(=O)[C@@H](N)CC(C)C)C(=O)N1CCC[C@H]1C(=O)N[C@H]1CSSC[C@@H](C(=O)N[C@@H](Cc2ccccc2)C(=O)N[C@@H](C)C(=O)N[C@@H](Cc2ccccc2)C(=O)N[C@@H](CC(N)=O)C(=O)N[C@@H](CCCCN)C(=O)N[C@@H](CC(=O)O)C(=O)N[C@@H](Cc2ccccc2)C(=O)N[C@H](C(=O)N[C@@H](Cc2ccccc2)C(=O)O)C(C)C)NC(=O)[C@@H]2CCCN2C(=O)[C@@H]2CCCN2C(=O)[C@H]([C@@H](C)CC)NC(=O)[C@H](CO)NC1=O` [VIR-356] (H-LEAIPCSIPPCFAFNKDFVF-OH; disulfide 6-11), the IC50 stood at 700 nM.

The values are drawn from patent US7655629B2, “Peptides and their use for the treatment of HIV infections” (priority 2002, dated 2010).
